# Laboratory results published in patent US12454703B2, “Controllable transcription” (Cambridge Enterprise Limited (GB/GB), priority 2016, dated 2025).
# Legend:
# induced myocytes = assay: Contraction of induced skeletal myocytes; type: cell-based, human; conditions: nanomolar concentrations
# [1] = tested on: EGFPd2 homozygous sOPTiKO hESCs; assay: Inducible CRISPR/Cas9 knockout of EGFPd2 reporter in hESCs; type: cell-based, human
# Description: For single site OPTIKO, AAVS1 targeting was performed by nucleofection. hESCs pre-treated for 16 h with 10 μM Y-27632 (Tocris) were dissociated to clumps of 2-8 cells using Accutase (Gibco), and 2×10^6 cells were nucleofected in 100 μl with a total of 12 μg of DNA (4 μg each for the two ZFN plasmids, and 2 μg each for the two targeting vectors) using the Lonza P3 Primary Cell 4D-Nucleofector X Kit and the cycle CA-137 on a Lonza 4D-Nucleofector System, all according to manufacturer's instructions. Nucleofected hESCs were plated onto a feeder layer of irradiated DR4 (puromycin and neomycin resistant) mouse embryonic fibroblasts and cultured in KSR media supplemented with 4 ng ml-1 FGF2 and 10 μM Y-27632 (this last only for the first 24 h). After 4 days, hPSC colonies carrying both puromycin and neomycin resistance gene were selected for 7-10 days with 25 μg ml-1 of Geneticin (G418 Sulfate, Gibco) and 0.5 μg ml-1 Puromycin. Individual clones were then picked and expanded in feeder-free conditions.
# Unless otherwise described in the figure legends or Examples, tetracycline hydrochloride (sigma-Aldrich) was used at 1 μg ml^−1 to induce gene knockdown or knockout. Induction of neurons Pluripotent OPTi-NGN2 cells were dissociated into single cells with TrypLE and plated onto Matrigel (35 μg/cm^2, Scientific Laboratory Supplies) coated dishes at a density of 75.000 cells per well of a 12 well plate. […] After 2 days of induction, the medium was switched to Neurobasal-medium supplemented with Glutamax (100×), B27 (50×, Gibco), BDNF (10 ng/ml, Peprotech), NT3 (10 ng/ml, R&D Systems), Penicillin/Streptomycin (1%), and doxycycline (1 μg/ml).
# Description for OPTi-MYOD1 hPSCs: Pluripotent OPTi-MYOD1 cells were dissociated into single cells with TrypLE and plated onto gelatine/MEF-medium coated dishes at a density of 100.000 cells per well of a 12 well plate. Forward programming was initiated 24-48 hours after the split. […] After 5 days of induction, the medium was supplemented with CHIR99021 (3 μM, Tocris) and heat-inactivated horse serum (2%, Gibco) to enhance maturation.
# For analysis of EGFP expression cells were harvested with TrypLE Select (Gibco) for 5-10 minutes at 37° C. to obtain a single cell suspension. Following a wash with PBS, cells were resuspended in ice-cold PBS supplemented with DAPI (10 μg/ml), and incubated for 5 minutes on ice. Cells were analyzed using a Cyan ADP flow-cytometer to determine the levels of EGFP expression of viable cells (DAPI negative). For staining and analysis of myosin heavy chain expression cells were harvested with TrypLE Select (as for EGFP expression analysis), washed once with PBS, and fixed and permeabilized with Cytofix/Cytoperm solution (BD Biosciences). Subsequently, cells were washed and blocked in Perm/Wash buffer (BD Biosciences) supplemented with 3% bovine serum albumin (BSA) at +4° C. overnight. […] After three washes with Perm/Wash buffer cells were analyzed with a Cyan ADP flowcytometer to determine the levels of MHC expression. […]
smiles,measurement,setting,value
CC1=C(/C=C/C(C)=C/C=C/C(C)=C/C(=O)O)C(C)(C)CCC1 [all-trans retinoic acid],conversion into myogenin and myosin heavy chain (MHC) double-positive myocytes,"OPTi-MYOD1 hPSCs; in conjunction with MYOD1 overexpression, by day 5 after induction",rapid and near-complete conversion
same,nature of the RA effect on myocyte conversion,OPTi-MYOD1 hPSCs; mediated through RA-receptor isoforms RARa and RARB,concentration dependent
C[N+](C)(C)CCOC(N)=O [carbachol],muscle fiber contraction,induced myocytes,complete muscle fiber contraction
CN(C)[C@@H]1C(O)=C(C(N)=O)C(=O)[C@@]2(O)C(O)=C3C(=O)c4c(O)cccc4[C@@](C)(O)[C@H]3C[C@@H]12 [tetracycline],reduction in EGFPd2 fluorescence,"[1]; five days following tetracycline induction, EGFPd2 homozygous cells",50%
same,knockout,"[1]; optimal gRNA sequence, 2 days of induction",up to 90%
same,EGFPd2 homozygous cells with full loss of EGFPd2 fluorescence,[1]; prolonged treatment with tetracycline,up to 75%
same,knockout efficiency,[1]; simultaneous induction of three copies of the same gRNA,95%
